Assay results taken from patent US5830917A, “L-N^6 -(1-iminoethyl) lysine derivatives useful as nitric oxide synthase inhibitors” (G. D. Searle & Co., priority 1995, dated 1998).
Counter-ions that a name gives are not always drawn.

Legend:
[1] = target: T1, human inducible NOS (hiNOS) (Homo sapiens, UniProt P35228); assay: Citrulline Assay for Nitric Oxide Synthase, hiNOS; format: biochemical; conditions: 37° C., 15 minutes, L-[2,3-3H]-arginine to citrulline
T1 construct: made in house; host or cells: insect cells, baculovirus vector
Experimental: (§1) Citrulline Assay for Nitric Oxide Synthase
(§2) Nitric oxide synthase activity was measured by monitoring the conversion of L-[2,3-3H]-arginine to L-[2,3-3H]-citrulline (1,2). The cDNA for human inducible NOS (hiNOS) was isolated from a λcDNA library made from RNA extracted from a colon sample from a patient with ulcerative colitis; human endothelial constitutive NOS (hecNOS) was isolated from a λcDNA library made from RNA extracted from human umbilical vein endothelial cells (HUVEC); and human neuronal constitutive NOS (hncNOS) was isolated from a λcDNA library made from RNA extracted from human cerebellum from a cadaver. The recombinant enzymes were expressed in insect cells using a baculovirus vector. Enzyme activity was isolated from cell extracts and partially purified by DEAE-Sepharose chromatography (2). Enzyme and inhibitors were added to give a volume of 50 μL in 50 mM Tris (pH 7.6) and the reaction initiated by the addition of 50 μL of a solution containing 50 mM Tris (pH 7.6), 2.0 mg/mL bovine serum albumin, 2.0 mM DTT, 4.0 mM CaCl2, 20 μM FAD, 100 μM tetrahydrobiopterin, 0.4-2.0 mM NADPH and 60 μM L-arginine containing 0.9 μCi of L-[2,3-3H]-arginine. […] The [3H]-citrulline was separated by chromatography on Dowex 50W X-8 cation exchange resin and radioactivity quantified with a liquid scintillation counter.

[2] = target: T2, human endothelial constitutive NOS (hecNOS) (Homo sapiens, UniProt P29474); assay: Citrulline Assay for Nitric Oxide Synthase, hecNOS; format: biochemical; conditions: 37° C., 15 minutes, with calmodulin 40-100 nM
T2 construct: made in house; host or cells: insect cells, baculovirus vector
Experimental: as §1, §2

[3] = target: T3, human neuronal constitutive NOS (hncNOS) (Homo sapiens, UniProt P29475); assay: Citrulline Assay for Nitric Oxide Synthase, hncNOS; format: biochemical; conditions: 37° C., 15 minutes, with calmodulin 40-100 nM
T3 construct: made in house; host or cells: insect cells, baculovirus vector
Experimental: as §1, §2

[4] = system: constitutive and the inducible NO synthase; conditions: background statement; cited from earlier work

| IC50 [1] [µM] | IC50 [2] [µM] | IC50 [3] [µM] | Compound | selectivity between constitutive and inducible NO synthase [4] |
| --- | --- | --- | --- | --- |
| 106 | 6620 | 837 | CC(=N)NCCCC[C@H](N)CNS(C)(=O)=O [Example 3, N-[5S-amino-6-[(methylsulfonyl)amino]hexyl]ethanimidamide, dihydrochloride] | – |
| 22 | 479 | 35 | CC(=N)NCCCC[C@H](N)CNC(=N)N [Example 2, N-[5S-amino-6-[(aminoiminomethyl)amino]hexyl]ethanimidamide, trihydrochloride] | – |
| – | – | – | CN=C(N)NCCC[C@H](N)C(=O)O [L-NMMA, L-N-monomethyl-arginine] | non-selective |
